Tests used:
[1] = target: T1, BRG-1 (Homo sapiens, UniProt P51532); experiment: ATPase catalytic activity of BRG-1, ADP-Glo in vitro biochemical assay; conditions: ADP-Glo ATPase assay, 30 nM BRG-1, 400 μM ATP; read-out: BRG1 IC50
T1 construct: made in house; host or cells: High Five insect cells
Procedure, shortened: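 BRG-1 ATPase activity was measured in vitro by ADP-Glo. After the reaction, ADP-Glo Reagent depleted unconsumed ATP (40 min, room temperature), then Kinase Detection Reagent converted product ADP to ATP (60 min, room temperature), and luciferase luminescence was read.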

[2] = target: T2, BRM (Homo sapiens, UniProt P51531); experiment: ATPase catalytic activity of BRM, ADP-Glo in vitro biochemical assay; conditions: for IC50: ADP-Glo ATPase assay, 30 nM BRM, 400 μM ATP; for Ratio* (BRG1 IC50 (μM) divided by BRM IC50 (μM)): selectivity ratio BRG1 IC50 / BRM IC50
T2 construct: made in house; host or cells: High Five insect cells
Procedure, shortened: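 Recombinant BRM (30 nM) hydrolysed 400 μM ATP with 20 nM salmon sperm DNA in pH 8 Tris buffer containing 20 mM MgCl2, 50 mM NaCl, 0.1% Tween-20 and 1 mM DTT, 1 h at room temperature. ADP formed was quantified by ADP-Glo luminescence.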

T2 sequence (P51531 whole entry): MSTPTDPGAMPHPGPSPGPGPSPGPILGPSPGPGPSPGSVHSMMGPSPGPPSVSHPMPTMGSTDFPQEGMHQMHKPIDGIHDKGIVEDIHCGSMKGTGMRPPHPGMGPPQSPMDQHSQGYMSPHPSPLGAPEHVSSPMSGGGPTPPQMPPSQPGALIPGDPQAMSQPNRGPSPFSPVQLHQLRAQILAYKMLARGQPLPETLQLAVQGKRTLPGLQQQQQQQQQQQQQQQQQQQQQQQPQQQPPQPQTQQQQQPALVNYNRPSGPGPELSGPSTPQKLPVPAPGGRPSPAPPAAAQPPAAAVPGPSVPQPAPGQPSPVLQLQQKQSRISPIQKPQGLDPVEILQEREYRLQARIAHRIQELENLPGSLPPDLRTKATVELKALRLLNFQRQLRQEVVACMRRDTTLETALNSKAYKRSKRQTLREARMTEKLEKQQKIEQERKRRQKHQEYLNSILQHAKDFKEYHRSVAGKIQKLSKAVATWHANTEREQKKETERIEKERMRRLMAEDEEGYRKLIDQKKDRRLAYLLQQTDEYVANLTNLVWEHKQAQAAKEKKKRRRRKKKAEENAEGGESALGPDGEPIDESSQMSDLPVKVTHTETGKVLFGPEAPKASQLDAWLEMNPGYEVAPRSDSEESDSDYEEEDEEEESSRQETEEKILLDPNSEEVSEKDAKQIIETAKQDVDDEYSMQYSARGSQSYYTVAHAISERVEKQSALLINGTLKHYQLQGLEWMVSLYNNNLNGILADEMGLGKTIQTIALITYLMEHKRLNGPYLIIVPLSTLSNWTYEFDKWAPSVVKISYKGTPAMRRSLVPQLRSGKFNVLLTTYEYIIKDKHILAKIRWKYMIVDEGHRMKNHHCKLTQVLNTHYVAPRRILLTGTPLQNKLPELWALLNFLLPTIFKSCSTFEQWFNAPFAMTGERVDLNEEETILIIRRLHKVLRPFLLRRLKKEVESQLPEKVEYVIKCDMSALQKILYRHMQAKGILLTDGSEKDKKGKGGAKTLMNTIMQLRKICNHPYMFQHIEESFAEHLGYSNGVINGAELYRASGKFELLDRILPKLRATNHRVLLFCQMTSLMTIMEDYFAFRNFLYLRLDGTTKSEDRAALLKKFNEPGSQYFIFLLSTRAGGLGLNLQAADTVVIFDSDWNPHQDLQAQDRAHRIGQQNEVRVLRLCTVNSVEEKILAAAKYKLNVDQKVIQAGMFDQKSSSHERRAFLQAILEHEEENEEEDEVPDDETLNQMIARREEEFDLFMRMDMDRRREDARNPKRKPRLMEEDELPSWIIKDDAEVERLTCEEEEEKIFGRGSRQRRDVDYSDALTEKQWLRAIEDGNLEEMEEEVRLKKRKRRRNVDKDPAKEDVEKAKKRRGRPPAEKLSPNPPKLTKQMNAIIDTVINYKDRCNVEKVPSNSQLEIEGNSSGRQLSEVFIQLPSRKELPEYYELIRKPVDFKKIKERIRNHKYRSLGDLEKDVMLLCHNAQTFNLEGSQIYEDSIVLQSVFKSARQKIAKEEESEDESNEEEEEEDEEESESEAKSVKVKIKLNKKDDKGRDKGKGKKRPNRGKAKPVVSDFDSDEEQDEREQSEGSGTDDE
T1 sequence (P51532 whole entry): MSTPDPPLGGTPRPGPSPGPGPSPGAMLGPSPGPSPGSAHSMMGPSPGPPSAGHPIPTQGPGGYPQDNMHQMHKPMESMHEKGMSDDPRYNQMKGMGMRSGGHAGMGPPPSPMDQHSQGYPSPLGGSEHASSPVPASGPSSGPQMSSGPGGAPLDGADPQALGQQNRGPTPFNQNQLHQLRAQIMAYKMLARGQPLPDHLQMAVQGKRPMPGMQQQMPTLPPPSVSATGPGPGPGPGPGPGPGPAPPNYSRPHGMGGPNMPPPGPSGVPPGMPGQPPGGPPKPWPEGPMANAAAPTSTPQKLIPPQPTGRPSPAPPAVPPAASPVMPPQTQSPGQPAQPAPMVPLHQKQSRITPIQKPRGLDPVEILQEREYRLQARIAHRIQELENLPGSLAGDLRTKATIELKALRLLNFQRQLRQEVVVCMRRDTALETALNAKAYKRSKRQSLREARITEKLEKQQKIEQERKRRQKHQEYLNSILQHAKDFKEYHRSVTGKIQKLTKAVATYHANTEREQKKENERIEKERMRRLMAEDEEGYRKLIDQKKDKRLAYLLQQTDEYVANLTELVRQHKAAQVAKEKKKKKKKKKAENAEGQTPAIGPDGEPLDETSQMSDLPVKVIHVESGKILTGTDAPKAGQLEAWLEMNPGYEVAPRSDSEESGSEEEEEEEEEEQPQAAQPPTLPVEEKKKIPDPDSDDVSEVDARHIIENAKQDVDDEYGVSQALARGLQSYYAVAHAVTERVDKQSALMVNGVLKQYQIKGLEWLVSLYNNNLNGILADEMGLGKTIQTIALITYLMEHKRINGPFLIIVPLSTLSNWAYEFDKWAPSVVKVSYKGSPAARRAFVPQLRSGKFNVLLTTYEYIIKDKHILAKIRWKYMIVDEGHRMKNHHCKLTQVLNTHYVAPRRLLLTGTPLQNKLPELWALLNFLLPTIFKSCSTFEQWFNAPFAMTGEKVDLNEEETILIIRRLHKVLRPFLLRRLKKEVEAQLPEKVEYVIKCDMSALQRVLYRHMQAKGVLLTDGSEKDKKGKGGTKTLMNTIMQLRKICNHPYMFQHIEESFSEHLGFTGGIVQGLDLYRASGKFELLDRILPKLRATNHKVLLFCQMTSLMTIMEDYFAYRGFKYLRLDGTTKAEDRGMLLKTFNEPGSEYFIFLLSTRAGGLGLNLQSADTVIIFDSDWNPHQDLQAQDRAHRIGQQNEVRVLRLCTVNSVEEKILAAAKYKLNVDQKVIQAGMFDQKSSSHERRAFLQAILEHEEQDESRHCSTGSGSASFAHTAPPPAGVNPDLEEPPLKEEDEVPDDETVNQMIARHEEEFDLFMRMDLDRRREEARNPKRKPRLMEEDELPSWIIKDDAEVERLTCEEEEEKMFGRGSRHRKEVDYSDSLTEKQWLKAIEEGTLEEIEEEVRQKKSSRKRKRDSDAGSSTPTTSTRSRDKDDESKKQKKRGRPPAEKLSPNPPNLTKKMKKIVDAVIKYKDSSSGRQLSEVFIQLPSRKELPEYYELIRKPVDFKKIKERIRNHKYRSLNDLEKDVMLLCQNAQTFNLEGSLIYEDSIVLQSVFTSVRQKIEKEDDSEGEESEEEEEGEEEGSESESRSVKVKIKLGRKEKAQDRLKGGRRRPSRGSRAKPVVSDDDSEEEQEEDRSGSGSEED

SMILES	IC50 [1] [nM]	IC50 [2] [nM]	Ratio* (BRG1 IC50 (μM) divided by BRM IC50 (μM)) [2]
O=C(NCc1cc2nc(-c3cncc(C4CC4)n3)ccc2cn1)c1ccc2c(c1)S(=O)(=O)COCC2 [Compound 236]	440	34	12.93
COCCS(=O)(=O)c1cc(C(=O)NCc2cc3nc(-c4cncc(C5CC5)n4)ccc3cn2)ccc1Cl [Compound 238]	5000	261	19.12
C[C@@H]1CN(c2cccc(-c3ccc4cnc(CNC(=O)c5cc(F)c6c(c5)S(=O)(=O)CCOC6)cc4n3)n2)C[C@H](C)O1 [Compound 240]	23.8	6.5	3.66
O=C(NCc1cc2nc(-c3cccc(OC4CC4)n3)ccc2cn1)c1ccc2c(c1)S(=O)(=O)CCOC2 [Compound 241]	1070	62.3	17.23
Cn1ccc2c(-c3ccc4cnc(CNC(=O)c5ccc6c(c5)S(=O)(=O)CCOC6)cc4n3)cccc21 [Compound 245]	176	18.7	9.42
O=C(NCc1cc2cc(-c3cncc(C4CC4)n3)ccc2cn1)c1cnc2c(c1)S(=O)(=O)CCOC2 [Compound 248]	590	70.2	8.41
O=C(NCc1cc2nc(-c3cccc(C4CC4)n3)ccc2nn1)c1ccc2c(c1)S(=O)(=O)CCOC2 [Compound 253]	398	20.7	19.26
O=C(NCc1cc2cc(-c3cccc(N4CCC4)n3)ccc2cn1)c1cnc2c(c1)S(=O)(=O)CCOC2 [Compound 256]	426	49	8.69
O=C(NCc1cc2cc(-c3cncc(N4CCC4)n3)ccc2cn1)c1ccc2c(c1)S(=O)(=O)CCOC2 [Compound 257]	107	15.4	6.99
CS(=O)(=O)c1cc(C(=O)NCc2cc3nc(-c4cccc(C5CC5)n4)ccc3cn2)ccc1C#N [Compound 259]	5000	467	10.71
COC[C@H](C)S(=O)(=O)c1cccc(C(=O)NCc2cc3nc(-c4cncc(C5CC5)n4)ccc3cn2)c1 [Compound 260]	5000	697	7.17
COc1nn(C2COC2)cc1-c1ccc2cnc(CNC(=O)c3ccc4c(c3)S(=O)(=O)CCOC4)cc2c1 [Compound 261]	233	16.5	14.10
CC(C)(F)c1cncc(-c2ccc3cnc(CNC(=O)c4ccc5c(c4)S(=O)(=O)CCOC5)cc3n2)n1 [Compound 262]	2620	466	5.63
O=C(NCc1cc2cc(-c3cncc(C4CC4)n3)ccc2cn1)c1ccc2c(c1)S(=O)(=O)CCOC2 [Compound 263]	348	23.3	14.94
CS(=O)(=O)c1cc(C(=O)NCc2cc3nc(-c4cncc(C5CC5)n4)ccc3cn2)ccc1C1CC1 [Compound 266]	5000	819	6.11
O=C(NCc1cc2cc(-c3cccc(N4CCC4)n3)ccc2cn1)c1cc(F)c2c(c1)S(=O)(=O)CCOC2 [Compound 268]	343	16.3	21.00
Cc1c(Cl)cc(C(=O)NCc2cc3nc(-c4cncc(C5CC5)n4)ccc3cn2)cc1S(C)(=O)=O [Compound 269]	5000	200	25.03
O=C(NCc1cc2cc(-c3cccc(N4CCC4)n3)ccc2cn1)c1ccc2c(c1)S(=O)(=O)CCOC2 [Compound 271]	204	16.1	12.70
CS(=O)(=O)c1cc(C(=O)NCc2cc3nc(-c4cncc(C5CC5)n4)ccc3cn2)cc(F)c1Cl [Compound 272]	4230	245	17.28
COCc1ccc(C(=O)NCc2cc3nc(-c4cncc(C5CC5)n4)ccc3cn2)cc1S(C)(=O)=O [Compound 273]	2800	119	23.47
CCS(=O)(=O)c1cc(C(=O)NCc2cc3nc(-c4cncc(C5CC5)n4)ccc3cn2)ccc1C [Compound 275]	1320	84.9	15.55
O=C(NCc1cc2nc(-c3cccc(N4CC5CC(C4)O5)n3)ccc2cn1)c1ccc2c(c1)S(=O)(=O)CCOC2 [Compound 276]	584	81.8	7.14
CS(=O)(=O)c1cc(C(=O)NCc2cc3nc(-c4cncc(C5CC5)n4)ccc3cn2)cnc1C(F)F [Compound 277]	5360	615	8.72
Cc1ccc(C(=O)NCc2cc3nc(-c4cncc(C5CC5)n4)ccc3cn2)cc1S(=O)(=O)C(C)C [Compound 279]	5000	529	9.45

Further lines, results first:

IC50 [1] [nM]	IC50 [2] [nM]	Ratio* (BRG1 IC50 (μM) divided by BRM IC50 (μM)) [2]	SMILES
1130	154	7.32	Cn1nccc1-c1cccc(-c2ccc3cnc(CNC(=O)c4ccc5c(c4)S(=O)(=O)CCOC5)cc3n2)c1 [Compound 235]
468	22.7	20.63	O=C(NCc1cc2nc(-c3cccc(OC(F)(F)F)n3)ccc2cn1)c1ccc2c(c1)S(=O)(=O)CCOC2 [Compound 237]
422	20.6	20.48	CCOc1cccc(-c2ccc3cnc(CNC(=O)c4ccc5c(c4)S(=O)(=O)CCOC5)cc3n2)n1 [Compound 239]
3170	286	11.06	O=C(NCc1cc2nc(-c3cccc(OC4COC4)c3)ccc2cn1)c1ccc2c(c1)S(=O)(=O)CCOC2 [Compound 242]
4660	528	8.82	O=C(NCc1cc2nc(-c3cccc(F)n3)ccc2cn1)c1ccc2c(c1)S(=O)(=O)CCOC2 [Compound 243]
337	20.7	16.32	Cn1ccc(-c2cccc(-c3ccc4cnc(CNC(=O)c5ccc6c(c5)S(=O)(=O)CCOC6)cc4n3)c2)n1 [Compound 244]
2000	325	6.16	O=C(NCc1cc2nc(-c3ccccc3Cl)ccc2cn1)c1ccc2c(c1)S(=O)(=O)CCOC2 [Compound 247]
751	105	7.17	O=C(NCc1cc2nc(-c3ccccc3OC(F)F)ccc2cn1)c1ccc2c(c1)S(=O)(=O)CCOC2 [Compound 250]
1700	176	9.69	O=C(NCc1cc2nc(-c3cccc([C@@H]4CC4(F)F)c3)ccc2cn1)c1ccc2c(c1)S(=O)(=O)CCOC2 [Compound 251]
1380	75.3	18.31	O=C(NCc1cc2nc(-c3cccc([C@H]4CC4(F)F)c3)ccc2cn1)c1ccc2c(c1)S(=O)(=O)CCOC2 [Compound 252]
517	54.2	9.53	COc1ccccc1-c1ccc2cnc(CNC(=O)c3ccc4c(c3)S(=O)(=O)CCOC4)cc2n1 [Compound 254]
487	36.4	13.37	O=C(NCc1cc2nc(-c3cccc(N4CCC4)c3)ccc2cn1)c1ccc2c(c1)S(=O)(=O)CCOC2 [Compound 255]
4120	221	18.63	O=C(NCc1cc2nc(-c3cccc(Cl)c3)ccc2cn1)c1ccc2c(c1)S(=O)(=O)CCOC2 [Compound 258]
590	23.5	25.10	O=C(NCc1cc2nc(-c3cccc(C4CC4)n3)ccc2cn1)c1ccc2c(c1)S(=O)(=O)CCOC2 [Compound 264]
2400	167	14.36	COc1cccc(-c2ccc3cnc(CNC(=O)c4ccc5c(c4)S(=O)(=O)CCOC5)cc3n2)c1 [Compound 265]
1090	35.2	30.99	O=C(NCc1cc2nc(-c3cccc([C@H]4CC4(F)F)n3)ccc2cn1)c1ccc2c(c1)S(=O)(=O)CCOC2 [Compound 267]
1570	127	12.44	O=C(NCc1cc2nc(-c3cccc([C@@H]4CC4(F)F)n3)ccc2cn1)c1ccc2c(c1)S(=O)(=O)CCOC2 [Compound 270]
589	69.6	8.46	CNc1cccc(-c2ccc3cnc(CNC(=O)c4ccc5c(c4)S(=O)(=O)CCOC5)cc3n2)n1 [Compound 274]
1910	73.8	25.91	O=C(NCc1cc2nc(-c3cccc(OC(F)F)c3)ccc2cn1)c1ccc2c(c1)S(=O)(=O)CCOC2 [Compound 278]
2170	212	10.26	CC(C)(F)c1cccc(-c2ccc3cnc(CNC(=O)c4ccc5c(c4)S(=O)(=O)CCOC5)cc3n2)n1 [Compound 280]

— patent US20230416248A1, “COMPOUNDS AND USES THEREOF” (Foghorn Therapeutics Inc., priority 2020, published 2023)
